Assay results taken from patent US10881106B2, “Herbicidal pyridazinone compounds” (SYNGENTA PARTICIPATIONS AG, priority 2016, dated 2021).

Assays:
Type in all cases: in vivo
[1] = test system: Abutilon theophrasti (ABUTH); test: Post-emergence glasshouse herbicide test, percentage damage to plant; conditions: POST Application, 125 g/ha, evaluated after 14 days
Experimental: (§1) Seeds of a variety of test species were sown in standard soil in pots (Amaranthus retoflexus (AMARE), Abutilon theophrasti (ABUTH), Digitaria sanguinalis (DIGSA), Setaria faberi (SETFA) and Zea mays (ZEAMX). After cultivation for 10 days under controlled conditions in a glasshouse (at 24/16° C., day/night; 14 hours light; 65% humidity), the plants were sprayed with an aqueous spray solution derived from the formulation of the technical active ingredient in 0.6 ml acetone and 45 ml formulation solution containing 10.6% Emulsogen EL (Registry number 61791-12-6), 42.2% N-methyl pyrrolidone, 42.2% dipropylene glycol monomethyl ether (CAS RN 34590-94-8) and 0.2% X-77 (CAS RN 11097-66-8). The test plants were then grown in a glasshouse under controlled conditions in a glasshouse (at 24/16° C., day/night; 14 hours light; 65% humidity) and watered twice daily. After 14 days the test is evaluated for the percentage damage caused to the plant. The biological activities are shown in the following table on a five point scale (5=80-100%; 4=60-79%; 3=40-59%; 2=20-39%; 1=0-19%).

[2] = test system: Amaranthus retoflexus (AMARE); test: as above; conditions: POST Application, 125 g/ha, evaluated after 14 days
Experimental: as §1

[3] = test system: Digitaria sanguinalis (DIGSA); test: as above; conditions: POST Application, 125 g/ha, evaluated after 14 days
Experimental: as §1

[4] = test system: Setaria faberi (SETFA); test: as above; conditions: POST Application, 125 g/ha, evaluated after 14 days
Experimental: as §1

[5] = test system: Zea mays (ZEAMX); test: Post-emergence glasshouse herbicide test, percentage damage to crop plant; conditions: POST Application, 125 g/ha, evaluated after 14 days; crop (corn)
Experimental: as §1

Cc1cc(C(=O)C2=C(O)CCCC2=O)c(=O)n(CCC(=O)N2CCOCC2)n1 [Compound 1.004]
ABUTH percentage damage caused to the plant (five point scale) [1]: 5 (5=80-100%) | AMARE percentage damage caused to the plant (five point scale) [2]: 5 (5=80-100%) | DIGSA percentage damage caused to the plant (five point scale) [3]: 5 (5=80-100%) | SETFA percentage damage caused to the plant (five point scale) [4]: 5 (5=80-100%) | ZEAMX percentage damage caused to the plant (five point scale) [5]: 1 (1=0-19%)

CNC(=O)OCCn1nc(C)cc(C(=O)C2=C(O)CCCC2=O)c1=O [Compound 1.008]
ABUTH percentage damage caused to the plant (five point scale) [1]: 5 (5=80-100%) | AMARE percentage damage caused to the plant (five point scale) [2]: 5 (5=80-100%) | DIGSA percentage damage caused to the plant (five point scale) [3]: 5 (5=80-100%) | SETFA percentage damage caused to the plant (five point scale) [4]: 5 (5=80-100%) | ZEAMX percentage damage caused to the plant (five point scale) [5]: 1 (1=0-19%)

Cc1cc(C(=O)C2=C([O-])CC(C)(C)CC2=O)c(=O)n(CCOC(=O)N(C)C)n1.[Na+] [Compound 1.027]
ABUTH percentage damage caused to the plant (five point scale) [1]: 5 (5=80-100%) | AMARE percentage damage caused to the plant (five point scale) [2]: 5 (5=80-100%) | DIGSA percentage damage caused to the plant (five point scale) [3]: 5 (5=80-100%) | SETFA percentage damage caused to the plant (five point scale) [4]: 5 (5=80-100%) | ZEAMX percentage damage caused to the plant (five point scale) [5]: 1 (1=0-19%)

CCN(C)C(=O)CCn1nc(C)cc(C(=O)C2=C([O-])CCCC2=O)c1=O.[Na+] [Compound 1.013]
ABUTH percentage damage caused to the plant (five point scale) [1]: 5 (5=80-100%) | AMARE percentage damage caused to the plant (five point scale) [2]: 5 (5=80-100%) | DIGSA percentage damage caused to the plant (five point scale) [3]: 5 (5=80-100%) | SETFA percentage damage caused to the plant (five point scale) [4]: 5 (5=80-100%) | ZEAMX percentage damage caused to the plant (five point scale) [5]: 1 (1=0-19%)

Cc1cc(C(=O)C2=C([O-])CCCC2=O)c(=O)n(CCOC(=O)N2CCOCC2)n1.[Na+] [Compound 1.025]
ABUTH percentage damage caused to the plant (five point scale) [1]: 5 (5=80-100%) | AMARE percentage damage caused to the plant (five point scale) [2]: 5 (5=80-100%) | DIGSA percentage damage caused to the plant (five point scale) [3]: 5 (5=80-100%) | SETFA percentage damage caused to the plant (five point scale) [4]: 5 (5=80-100%) | ZEAMX percentage damage caused to the plant (five point scale) [5]: 1 (1=0-19%)

CNC(=O)CCn1nc(C)cc(C(=O)C2=C(O)CCCC2=O)c1=O [Compound 1.006]
ABUTH percentage damage caused to the plant (five point scale) [1]: 4 (4=60-79%) | AMARE percentage damage caused to the plant (five point scale) [2]: 5 (5=80-100%) | DIGSA percentage damage caused to the plant (five point scale) [3]: 5 (5=80-100%) | SETFA percentage damage caused to the plant (five point scale) [4]: 5 (5=80-100%) | ZEAMX percentage damage caused to the plant (five point scale) [5]: 1 (1=0-19%)

Cc1cc(C(=O)C2=C(O)CCCC2=O)c(=O)n(CCOC(=O)N(C)C)n1 [Compound 1.009]
ABUTH percentage damage caused to the plant (five point scale) [1]: 5 (5=80-100%) | AMARE percentage damage caused to the plant (five point scale) [2]: 5 (5=80-100%) | DIGSA percentage damage caused to the plant (five point scale) [3]: 5 (5=80-100%) | SETFA percentage damage caused to the plant (five point scale) [4]: 4 (4=60-79%) | ZEAMX percentage damage caused to the plant (five point scale) [5]: 1 (1=0-19%)

Cc1cc(C(=O)C2=C([O-])CCCC2=O)c(=O)n(CCC(=O)N(C)CC(F)(F)F)n1.[Na+] [Compound 1.014]
ABUTH percentage damage caused to the plant (five point scale) [1]: 5 (5=80-100%) | AMARE percentage damage caused to the plant (five point scale) [2]: 5 (5=80-100%) | DIGSA percentage damage caused to the plant (five point scale) [3]: 5 (5=80-100%) | SETFA percentage damage caused to the plant (five point scale) [4]: 5 (5=80-100%) | ZEAMX percentage damage caused to the plant (five point scale) [5]: 1 (1=0-19%)

CCN(CC)C(=O)CCn1nc(C)cc(C(=O)C2=C(O)CCCC2=O)c1=O [Compound 1.007]
ABUTH percentage damage caused to the plant (five point scale) [1]: 5 (5=80-100%) | AMARE percentage damage caused to the plant (five point scale) [2]: 5 (5=80-100%) | DIGSA percentage damage caused to the plant (five point scale) [3]: 5 (5=80-100%) | SETFA percentage damage caused to the plant (five point scale) [4]: 5 (5=80-100%) | ZEAMX percentage damage caused to the plant (five point scale) [5]: 1 (1=0-19%)

Cc1cc(C(=O)C2=C(O)CCCC2=O)c(=O)n(CC(=O)N(C)C)n1 [Compound 1.001]
ABUTH percentage damage caused to the plant (five point scale) [1]: 5 (5=80-100%) | AMARE percentage damage caused to the plant (five point scale) [2]: 5 (5=80-100%) | DIGSA percentage damage caused to the plant (five point scale) [3]: 5 (5=80-100%) | SETFA percentage damage caused to the plant (five point scale) [4]: 5 (5=80-100%) | ZEAMX percentage damage caused to the plant (five point scale) [5]: 1 (1=0-19%)

Cc1cc(C(=O)C2=C([O-])CC(C)CC2=O)c(=O)n(CCC(=O)N(C)C)n1.[Na+] (centres unmarked) [Compound 1.010]
ABUTH percentage damage caused to the plant (five point scale) [1]: 5 (5=80-100%) | AMARE percentage damage caused to the plant (five point scale) [2]: 5 (5=80-100%) | DIGSA percentage damage caused to the plant (five point scale) [3]: 5 (5=80-100%) | SETFA percentage damage caused to the plant (five point scale) [4]: 5 (5=80-100%) | ZEAMX percentage damage caused to the plant (five point scale) [5]: 1 (1=0-19%)

CCN(CC)C(=O)OCCn1nc(C)cc(C(=O)C2=C([O-])CCCC2=O)c1=O.[Na+] [Compound 1.021]
ABUTH percentage damage caused to the plant (five point scale) [1]: 5 (5=80-100%) | AMARE percentage damage caused to the plant (five point scale) [2]: 4 (4=60-79%) | DIGSA percentage damage caused to the plant (five point scale) [3]: 5 (5=80-100%) | SETFA percentage damage caused to the plant (five point scale) [4]: 5 (5=80-100%) | ZEAMX percentage damage caused to the plant (five point scale) [5]: 1 (1=0-19%)

Cc1cc(C(=O)C2=C([O-])CC(C)CC2=O)c(=O)n(CCOC(=O)N(C)C)n1.[Na+] (centres unmarked) [Compound 1.026]
ABUTH percentage damage caused to the plant (five point scale) [1]: 5 (5=80-100%) | AMARE percentage damage caused to the plant (five point scale) [2]: 5 (5=80-100%) | DIGSA percentage damage caused to the plant (five point scale) [3]: 5 (5=80-100%) | SETFA percentage damage caused to the plant (five point scale) [4]: 5 (5=80-100%) | ZEAMX percentage damage caused to the plant (five point scale) [5]: 1 (1=0-19%)

Cc1cc(C(=O)C2=C([O-])CCCC2=O)c(=O)n(CCC(=O)N(C)C)n1.[Na+] [Compound 1.002, sodium 2-[2-[3-(dimethylamino)-3-oxo-propyl]-6-methyl-3-oxo-pyridazine-4-carbonyl]-3-oxo-cyclohexen-1-olate]
ABUTH percentage damage caused to the plant (five point scale) [1]: 5 (5=80-100%) | AMARE percentage damage caused to the plant (five point scale) [2]: 5 (5=80-100%) | DIGSA percentage damage caused to the plant (five point scale) [3]: 5 (5=80-100%) | SETFA percentage damage caused to the plant (five point scale) [4]: 5 (5=80-100%) | ZEAMX percentage damage caused to the plant (five point scale) [5]: 1 (1=0-19%)

Cc1cc(C(=O)C2=C([O-])CCCC2=O)c(=O)n(CCOC(=O)N(C)CC(F)(F)F)n1.[Na+] [Compound 1.023]
ABUTH percentage damage caused to the plant (five point scale) [1]: 3 (3=40-59%) | AMARE percentage damage caused to the plant (five point scale) [2]: 3 (3=40-59%) | DIGSA percentage damage caused to the plant (five point scale) [3]: 5 (5=80-100%) | SETFA percentage damage caused to the plant (five point scale) [4]: 5 (5=80-100%) | ZEAMX percentage damage caused to the plant (five point scale) [5]: 1 (1=0-19%)

CN(C)C(=O)CCn1nc(C2CC2)cc(C(=O)C2=C([O-])CCCC2=O)c1=O.[Na+] [Compound 1.016]
ABUTH percentage damage caused to the plant (five point scale) [1]: 5 (5=80-100%) | AMARE percentage damage caused to the plant (five point scale) [2]: 5 (5=80-100%) | DIGSA percentage damage caused to the plant (five point scale) [3]: 5 (5=80-100%) | SETFA percentage damage caused to the plant (five point scale) [4]: 4 (4=60-79%) | ZEAMX percentage damage caused to the plant (five point scale) [5]: 1 (1=0-19%)

CCN(C)C(=O)OCCn1nc(C)cc(C(=O)C2=C([O-])CCCC2=O)c1=O.[Na+] [Compound 1.022]
ABUTH percentage damage caused to the plant (five point scale) [1]: 5 (5=80-100%) | AMARE percentage damage caused to the plant (five point scale) [2]: 5 (5=80-100%) | DIGSA percentage damage caused to the plant (five point scale) [3]: 5 (5=80-100%) | SETFA percentage damage caused to the plant (five point scale) [4]: 5 (5=80-100%) | ZEAMX percentage damage caused to the plant (five point scale) [5]: 1 (1=0-19%)

Cc1cc(C(=O)C2=C([O-])CCCC2=O)c(=O)n(CCOC(=O)N2CCCC2)n1.[Na+] [Compound 1.024]
ABUTH percentage damage caused to the plant (five point scale) [1]: 2 (2=20-39%) | AMARE percentage damage caused to the plant (five point scale) [2]: 4 (4=60-79%) | DIGSA percentage damage caused to the plant (five point scale) [3]: 5 (5=80-100%) | SETFA percentage damage caused to the plant (five point scale) [4]: 5 (5=80-100%) | ZEAMX percentage damage caused to the plant (five point scale) [5]: 1 (1=0-19%)

Cc1cc(C(=O)C2=C([O-])CCCC2=O)c(=O)n(C(C)C(=O)N(C)C)n1.[Na+] (centres unmarked) [Compound 1.029]
ABUTH percentage damage caused to the plant (five point scale) [1]: 5 (5=80-100%) | AMARE percentage damage caused to the plant (five point scale) [2]: 5 (5=80-100%) | DIGSA percentage damage caused to the plant (five point scale) [3]: 5 (5=80-100%) | SETFA percentage damage caused to the plant (five point scale) [4]: 5 (5=80-100%) | ZEAMX percentage damage caused to the plant (five point scale) [5]: 1 (1=0-19%)
